Experimental findings from US10555987B2, “GHRH agonists for the treatment of ischemic disorders” (UNIVERSITY OF MIAMI, priority 2012, dated 2020) are described below.

Assay [1] deals with GH release. Kind of assay: In vivo endocrine activity, GH release after subcutaneous administration (Table 9). Conditions: rat; for GH releasing potency relative to JI-38 (=1): subcutaneous (s.c.) injection; for Stimulation of growth hormone levels after subcutaneous administration (in words): s.c. As to the method:
Subcutaneous Administration. Adult male rats were used and anesthetized with pentobarbital (6 mg/100 g, b.w.), by i.p. injection. […] Blood samples were taken from the jugular vein 5, 15 and/or 30 minutes after the injection. The blood samples were centrifuged, plasma was removed and the GH level was measured byELISA. The results are summarized in terms of potency in Table 9.

For assay [2], the system named is GH release. Nature of the assay: GH releasing potency in vivo, subcutaneous administration (Example 14, Table 12). Also noted: species or system rat. To be noted: for Serum GH level at selected time after injection (ng/ml), 0 min / Serum GH level at selected time after injection (ng/ml), 15 min / Serum GH level at selected time after injection (ng/ml), 30 min: male rats, dose 3 μg/kg, mean ± SEM. An outline of the steps:
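Potency is expressed relative to GHRH(1-29)NH2 and JI-38 (each = 1), via equivalent GHRH(1-29)NH2 dose read from a standard curve. Peptides in 5% mannitol given i.v. or s.c. to anaesthetised male Sprague-Dawley rats (200-250 g); serum GH measured by ELISA at selected times.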

SMILES strings stand for the structures. “Also recorded” adds a separate entry of the source. Non-standard residues stand in square brackets, D forms with d. Residues, ends and D or L forms follow the SMILES beside them. *: point of attachment. Phe(F5) = N[C@@H](Cc1c(F)c(F)c(F)c(F)c1F)C(=O)O; NMeY = CN[C@@H](Cc1ccc(O)cc1)C(=O)O; Agmatine = N=C(N)NCCCCN*; Nle = CCCC[C@H](N)C(=O)O; Orn = NCCC[C@H](N)C(=O)O; Abu = CC[C@H](N)C(=O)O

Consider `CCCC[C@H](NC(=O)[C@@H](NC(=O)[C@H](CC(=O)O)NC(=O)[C@H](CCC(N)=O)NC(=O)[C@H](CC(C)C)NC(=O)[C@H](CC(C)C)NC(=O)[C@H](CCCN)NC(=O)[C@H](CCCNC(=N)N)NC(=O)[C@H](C)NC(=O)[C@H](CO)NC(=O)[C@H](CC(C)C)NC(=O)[C@H](CCC(N)=O)NC(=O)[C@H](CC)NC(=O)[C@H](CC(C)C)NC(=O)[C@@H](NC(=O)[C@H](CCCN)NC(=O)[C@H](CCCNC(=N)N)NC(=O)[C@H](Cc1ccc(O)cc1)NC(=O)[C@H](CO)NC(=O)[C@H](CCC(N)=O)NC(=O)[C@@H](NC(=O)[C@H](Cc1ccccc1)NC(=O)[C@@H](NC(=O)[C@H](C)NC(=O)[C@H](CC(=O)O)NC(=O)[C@@H](C)NC(=O)[C@H](Cc1ccc(O)cc1)NC)[C@@H](C)CC)[C@@H](C)O)C(C)C)[C@@H](C)CC)C(=O)N[C@@H](CC(=O)O)C(=O)NCCCCNC(=N)N` [Peptide P-20361, [N—Me-Tyr^1, D-Ala^2, Gln^8, Orn^12, Abu^15, Orn^21, Nle^27, Asp^28, Agm^29] hGHRH (1-29)NH2] (H-[NMeY][dA]DAIFTQSYR[Orn]VL[Abu]QLSAR[Orn]LLQDI[Nle]D-Agmatine), for which, in the assay with GH release [1] (15 min after), the “GH releasing potency relative to JI-38 (=1)” value is listed as 1.18. For the same compound, in the assay with GH release [1] (30 min after), the “GH releasing potency relative to JI-38 (=1)” value stood at 1.50. In addition, in the assay with GH release [2] (s.c.), the “Serum GH level at selected time after injection (ng/ml), 0 min” value turned out to be 46.1 ± 6.3 ng/mL; the “Serum GH level at selected time after injection (ng/ml), 15 min” value (“Serum GH level at selected time … 15 min” for short) turned out to be 275.9 ± 46.4 ng/mL; the “Serum GH level at selected time after injection (ng/ml), 30 min” value (shortened to “Serum GH level at selected time … 30 min”) was found to be 142.6 ± 18.4 ng/mL; the “Relative potency compared to GHRH(1-29), 15 min” value is 80. In addition, in the assay on GH release [2] (s.c.), the “Relative potency compared to JI-38, 15 min” value turned out to be 1.27; the “Relative potency compared to GHRH(1-29), 30 min” value was 134.1; the “Relative potency compared to JI-38, 30 min” value amounted to 1.20.

With `CCCC[C@H](NC(=O)[C@@H](NC(=O)[C@H](CC(=O)O)NC(=O)[C@H](CCC(N)=O)NC(=O)[C@H](CC(C)C)NC(=O)[C@H](CC(C)C)NC(=O)[C@H](CCCN)NC(=O)[C@H](CCCNC(=N)N)NC(=O)[C@H](C)NC(=O)[C@H](CO)NC(=O)[C@H](CC(C)C)NC(=O)[C@H](CCC(N)=O)NC(=O)[C@H](CC)NC(=O)[C@H](CC(C)C)NC(=O)[C@@H](NC(=O)[C@H](CCCN)NC(=O)[C@H](CCCNC(=N)N)NC(=O)[C@H](Cc1ccc(O)cc1)NC(=O)[C@H](CO)NC(=O)[C@H](CC(N)=O)NC(=O)[C@@H](NC(=O)[C@H](Cc1ccccc1)NC(=O)[C@@H](NC(=O)[C@H](C)NC(=O)[C@H](CC(=O)O)NC(=O)[C@@H](C)NC(=O)[C@H](Cc1ccc(O)cc1)NC)[C@@H](C)CC)[C@@H](C)O)C(C)C)[C@@H](C)CC)C(=O)N[C@@H](CC(=O)O)C(=O)NCCCCNC(=N)N` [Peptide P-20367, [N—Me-Tyr^1, D-Ala^2, Orn^12, Abu^15, Orn^21, Nle^27, Asp^28, Agm^29]hGHRH(1-29)NH2] (H-[NMeY][dA]DAIFTNSYR[Orn]VL[Abu]QLSAR[Orn]LLQDI[Nle]D-Agmatine), in the assay on GH release [1] (15 min after), the “GH releasing potency relative to JI-38 (=1)” value turned out to be 1.12. In the assay on GH release [1] (30 min after), the “GH releasing potency relative to JI-38 (=1)” value came to 2.01. In the assay with GH release [2] (s.c.), the “Serum GH level at selected time after injection (ng/ml), 0 min” value is 41.1 ± 5.6 ng/mL; the “Serum GH level at selected time … 15 min” value came out at 244.0 ± 25.1 ng/mL; the “Serum GH level at selected time … 30 min” value was determined as 141.2 ± 12.3 ng/mL; the “Relative potency compared to GHRH(1-29), 15 min” value stood at 68.1. Besides, in the assay with GH release [2] (s.c.), the “Relative potency compared to JI-38, 15 min” value worked out at 1.08; the “Relative potency compared to GHRH(1-29), 30 min” value amounted to 131.7; the “Relative potency compared to JI-38, 30 min” value was 1.18.

On to `CCCC[C@H](NC(=O)[C@@H](NC(=O)[C@H](CC(=O)O)NC(=O)[C@H](CCC(N)=O)NC(=O)[C@H](CC(C)C)NC(=O)[C@H](CC(C)C)NC(=O)[C@H](CCCN)NC(=O)[C@H](CCCNC(=N)N)NC(=O)[C@H](C)NC(=O)[C@H](CO)NC(=O)[C@H](CC(C)C)NC(=O)[C@H](CCC(N)=O)NC(=O)[C@H](CC)NC(=O)[C@H](CC(C)C)NC(=O)[C@@H](NC(=O)[C@H](CCCN)NC(=O)[C@H](CCCNC(=N)N)NC(=O)[C@H](Cc1ccc(O)cc1)NC(=O)[C@H](CO)NC(=O)[C@H](CCC(N)=O)NC(=O)[C@@H](NC(=O)[C@H](Cc1ccccc1)NC(=O)[C@@H](NC(=O)[C@H](C)NC(=O)[C@H](CC(=O)O)NC(=O)[C@@H](C)NC(=O)[C@H](Cc1ccc(O)cc1)NC)[C@@H](C)CC)[C@@H](C)O)C(C)C)[C@@H](C)CC)C(=O)N[C@@H](CC(=O)O)C(=O)N[C@@H](CCCNC(=N)N)C(=O)NC` [Peptide P-27403, [N—Me-Tyr^1, D-Ala^2, Gln^8, Orn^12, Abu^15, Orn^21, Nle^27, Asp^28]hGHRH(1-29)NH—CH3] (H-[NMeY][dA]DAIFTQSYR[Orn]VL[Abu]QLSAR[Orn]LLQDI[Nle]DR-NHMe), for which the “Stimulation of growth hormone levels after subcutaneous administration (in words)” value in the assay on GH release [1] is recorded as “stimulated greater growth hormone levels than hGHRH or JI-38”. Also, in the assay with GH release [1] (15 min after), the “GH releasing potency relative to JI-38 (=1)” value stood at 3.60. Besides, the “GH releasing potency relative to JI-38 (=1)” value in the assay on GH release [1] (30 min after) was 2.57. Besides, the “potency as compared to JI-38 in both i.v. and s.c. tests” value in the assay on GH release [2] (both i.v. and s.c. tests) is reported as “increased potency as compared to JI-38”. In the assay on GH release [2] (s.c.), the “Serum GH level at selected time after injection (ng/ml), 0 min” value came to 39.4 ± 5.3 ng/mL; the “Serum GH level at selected time … 15 min” value was determined as 608.7 ± 35.3 ng/mL; the “Serum GH level at selected time … 30 min” value is 281.7 ± 18.6 ng/mL; the “Relative potency compared to GHRH(1-29), 15 min” value was determined as 223.8. In addition, the “Relative potency compared to GHRH(1-29), 30 min” value in the assay with GH release [2] (s.c.) is listed as 448.9. For the same compound, the “Relative GH-releasing potency compared to JI-38 in s.c. tests (fold, range over time points)” value in the assay on GH release [2] (s.c., time not specified) was 3.6-4.0. The “GH-releasing potency after s.c. administration (in words)” value with GH release [2] (s.c., listed as MR-403) is on record as “highest GH-releasing potency; also recorded: significantly higher potencies at 30 minutes than at 15 minutes”.

For the compound `CCCC[C@H](NC(=O)[C@@H](NC(=O)[C@H](CC(=O)O)NC(=O)[C@H](CCC(N)=O)NC(=O)[C@H](CC(C)C)NC(=O)[C@H](CC(C)C)NC(=O)[C@H](CCCN)NC(=O)[C@H](CCCNC(=N)N)NC(=O)[C@H](C)NC(=O)[C@H](CO)NC(=O)[C@H](CC(C)C)NC(=O)[C@H](CCC(N)=O)NC(=O)[C@H](CC)NC(=O)[C@H](CC(C)C)NC(=O)[C@@H](NC(=O)[C@H](CCCN)NC(=O)[C@H](CCCNC(=N)N)NC(=O)[C@H](Cc1ccc(O)cc1)NC(=O)[C@H](CO)NC(=O)[C@H](CCC(N)=O)NC(=O)[C@@H](NC(=O)[C@H](Cc1c(F)c(F)c(F)c(F)c1F)NC(=O)[C@@H](NC(=O)[C@H](C)NC(=O)[C@H](CC(=O)O)NC(=O)[C@@H](C)NC(=O)[C@H](Cc1ccc(O)cc1)NC)[C@@H](C)CC)[C@@H](C)O)C(C)C)[C@@H](C)CC)C(=O)N[C@@H](CC(=O)O)C(=O)N[C@@H](CCCNC(=N)N)C(=O)NC` [Peptide P-27404, [N—Me-Tyr^1, D-Ala^2, Fpa5^6, Orn^12, Abu^15, Orn^21, Nle^27, Asp^28]hGHRH (1-29)NH—CH3] (H-[NMeY][dA]DAI[Phe(F5)]TQSYR[Orn]VL[Abu]QLSAR[Orn]LLQDI[Nle]DR-NHMe), the “Stimulation of growth hormone levels after subcutaneous administration (in words)” value in the assay on GH release [1] was “stimulated greater growth hormone levels than hGHRH or JI-38”. For the same compound, the “GH releasing potency relative to JI-38 (=1)” value in the assay on GH release [1] (15 min after) is given as 2.07. Also, the “GH releasing potency relative to JI-38 (=1)” value with GH release [1] (30 min after) is on record as 1.47. Besides, in the assay on GH release [2] (s.c.), the “Serum GH level at selected time after injection (ng/ml), 0 min” value turned out to be 29.5 ± 3.2 ng/mL; the “Serum GH level at selected time … 15 min” value was 320.5 ± 32.7 ng/mL; the “Serum GH level at selected time … 30 min” value worked out at 151 ± 28.5 ng/mL; the “Relative potency compared to GHRH(1-29), 15 min” value is 97.1. In the assay on GH release [2] (s.c.), the “Relative potency compared to JI-38, 15 min” value came to 1.54; the “Relative potency compared to GHRH(1-29), 30 min” value was 148.4; the “Relative potency compared to JI-38, 30 min” value came out at 1.33.
